Patent EP0003892A1, “Beta-lactam compounds, processes for their production, compositions containing them and intermediates of use in their preparation” (GLAXO GROUP LIMITED, priority 1978, dated 1979)
Values after ≈ are worked out from the molar mass of the structure shown. Like-named read-outs stand apart in the source and are kept apart here.

Key:
Test in all cases: Determination of Minimum Inhibitory Concentrations (MIC), agar dilution
Type in all cases: cell-based
Pr. mirabilis 431E = conditions: Proteus mirabilis
Protocol: (§1) 1. Determination of Minimum Inhibitory Concentrations (MIC)
(§2) Serial two-fold dilutions of freshly prepared test solutions were made into Oxoid No. 1 Nutrient agar with or without added enrichment and poured into petri diches. Plates were inoculated with a multipoint inoculator with inoculum containing approximately […] of the organisms shown in the following Tables, all of which organisms are clinical isolates. The MIC, quoted in the Tables as µg/ml, was read after 18 hours incubation at 37°C as the lowest concentration which inhibited growth.

H. influenzae 1184E = conditions: Haemophilus influenzae
Protocol: as §1, §2

K. aerogenes 1522E = conditions: Klebsiella aerogenes
Protocol: as §1, §2

E. cloacae 1051E = conditions: Enterobacter cloacae
Protocol: as §1, §2

Micrococcus Sp 1810E = conditions: SP1810E
Protocol: as §1, §2

E. cloacae 1321E = conditions: Enterobacter cloacae
Protocol: as §1, §2

Staph.aureus 853E = conditions: Staphylococcus aureus
Protocol: as §1, §2

E. coli 851E = conditions: Escherichia coli
Protocol: as §1, §2

MIC (Pr. mirabilis 431E; Pr. mirabilis 431E, clinical isolate, Oxoid No. 1 Nutrient agar, read after 18 hours incubation at 37°C, read-out: MIC) [µg/mL] | MIC (H. influenzae 1184E; H. influenzae 1184E, clinical isolate, Oxoid No. 1 Nutrient agar, read after 18 hours incubation at 37°C, read-out: MIC) [µg/mL] | MIC (K. aerogenes 1522E; K. aerogenes 1522E, clinical isolate, Oxoid No. 1 Nutrient agar, read after 18 hours incubation at 37°C, read-out: MIC) [µg/mL] | MIC (E. cloacae 1051E; E. cloacae 1051E, clinical isolate, Oxoid No. 1 Nutrient agar, read after 18 hours incubation at 37°C, read-out: MIC) [µg/mL] | MIC (Micrococcus Sp 1810E; Micrococcus Sp 1810E, clinical isolate, Oxoid No. 1 Nutrient agar, read after 18 hours incubation at 37°C, read-out: MIC) [µg/mL] | MIC (E. cloacae 1321E; E. cloacae 1321E, clinical isolate, Oxoid No. 1 Nutrient agar, read after 18 hours incubation at 37°C, read-out: MIC) [µg/mL] | MIC (Staph.aureus 853E; Staph.aureus 853E, clinical isolate, Oxoid No. 1 Nutrient agar, read after 18 hours incubation at 37°C, read-out: MIC) [µg/mL] | MIC (E. coli 851E; E. coli 851E, clinical isolate, Oxoid No. 1 Nutrient agar, read after 18 hours incubation at 37°C, read-out: MIC) [µg/mL] | Structure (SMILES) | MIC (Pr. mirabilis 431E; 431E, 18 h) [µg/mL] | MIC (H. influenzae 1184E; 1184E, 18 h) [µg/mL] | MIC (K. aerogenes 1522E; 1522E, 18 h) [µg/mL] | MIC (E. cloacae 1051E; 1051E, 18 h) [µg/mL] | MIC (Micrococcus Sp 1810E; Micrococcus, 18 h) [µg/mL] | MIC (E. cloacae 1321E; 1321E, 18 h) [µg/mL] | MIC (Staph.aureus 853E; 853E, 18 h) [µg/mL] | MIC (E. coli 851E; 851E, 18 h) [µg/mL]
 |  |  |  |  |  |  |  | CC(=O)SCCC1=C(C(=O)[O-])N2C(=O)CC2S1.[K+] (racemic) [Example 29, Potassium (5RS)-2-(2-acetylthioethyl)pen-2-em-3-carboxylate] | 1 | 8 | 2 | 16 | < 0.1 | 1 | < 0.1 | 1
 |  |  |  |  |  |  |  | CCOC(=S)SCCC1=C(C(=O)[O-])N2C(=O)CC2S1.[K+] (racemic) [Example 36, Potassium (5RS)-2-(2-ethoxythiocarbonylthioethyl)pen-2-em-3-carboxylate] | 8 | 4 | 16 | 62 | < 0.1 | 16 | < 0.1 | 8
16 (≈ 50.2 µM) | 2 (≈ 6.28 µM) | 31 (≈ 97.3 µM) | > 250 | < 0.1 | 31 (≈ 97.3 µM) | < 0.1 | 31 (≈ 97.3 µM) | CN(C)C(=S)SCCC1=C(C(=O)O)N2C(=O)CC2S1 (racemic) [Example 38, (5RS)-2-(2-N,N-Dimethylthiocarbamoylthioethyl)pen-2-em-3-carboxylic acid] |  |  |  |  |  |  |  | 
